ChEMBL document CHEMBL3120109, “Discovery of Thienoimidazole-Based HCV NS5A Genotype 1a and 1b Inhibitors” (ACS Med Chem Lett, 2014)

Key:
[1] = Volume of distribution at steady state in rat at 3 mg/kg, iv; assay type: ADME, organism-based; design: dose 3 mg/kg, route intravenous; conditions: in vivo, read-out: Vdss
[2] = Clearance in rat at 3 mg/kg, iv; assay type: ADME, organism-based; design: dose 3 mg/kg, route intravenous; conditions: in vivo
[3] = Oral bioavailability in rat at 3 mg/kg; assay type: ADME, organism-based; conditions: in vivo
[4] = test system: Hepatitis C virus; assay: Antiviral activity against Hepatitis C virus genotype 1a infected in W11.8 cells assessed as decrease in NS5A expression in replicon cell after 4 days by luminescence based ELISA; assay type: functional, organism-based, Hepacivirus hominis; conditions: subtype 1a, W11.8, 96 h
[5] = AUC (0 to 8 hrs) in rat at 3 mg/kg, po; assay type: ADME, organism-based; design: time < 8 hr, dose 3 mg/kg, route oral; conditions: plasma
[6] = Half life in rat at 3 mg/kg, po; assay type: ADME, organism-based; design: dose 3 mg/kg, route oral; conditions: in vivo
[7] = Half life in rat at 3 mg/kg, iv; assay type: ADME, organism-based; design: dose 3 mg/kg, route intravenous; conditions: in vivo
[8] = Cytotoxicity against human HuhET cells by [3H]thymidine incorporation assay; assay type: cell-based
[9] = test system: Hepatitis C virus; assay: Antiviral activity against Hepatitis C virus genotype 1b infected in human Huh-5.2 cells assessed as decrease in HCV replicon RNA replication after 4 days by luciferase assay; assay type: functional, organism-based, Hepacivirus hominis; conditions: Huh-5-2, 96 h
[10] = Ratio of EC50 for Hepatitis C virus genotype 1a infected in W11.8 cells to EC50 for Hepatitis C virus genotype 1b infected in human Huh-5.2 cells; assay type: functional
[11] = test system: Hepatitis C virus; assay: Ratio of EC50 for Hepatitis C virus genotype 1a harboring NS5A Y93H mutant gene to EC50 for Hepatitis C virus genotype 1a harboring wild type NS5A; assay type: functional, Hepacivirus hominis, subtype 1a
[12] = test system: Hepatitis C virus; assay: Ratio of EC50 for Hepatitis C virus genotype 1a harboring NS5A Q30R mutant gene to EC50 for Hepatitis C virus genotype 1a harboring wild type NS5A; assay type: functional, Hepacivirus hominis, subtype 1a
[13] = test system: Hepatitis C virus; assay: Ratio of EC50 for Hepatitis C virus genotype 1a harboring NS5A M28T mutant gene to EC50 for Hepatitis C virus genotype 1a harboring wild type NS5A; assay type: functional, Hepacivirus hominis, subtype 1a
[14] = Metabolic stability in rat liver microsomes assessed as intact compound level at 5 uM after 1 hr; assay type: ADME; conditions: read-out: Stability
[15] = Efflux ratio of permeability from basolateral to apical over apical to basolateral side in human Caco2 cells; assay type: ADME, cell-based; conditions: Caco-2
[16] = test system: Hepatitis C virus; assay: Ratio of EC50 for Hepatitis C virus genotype 1a harboring NS5A Y93C mutant gene to EC50 for Hepatitis C virus genotype 1a harboring wild type NS5A; assay type: functional, Hepacivirus hominis, subtype 1a
[17] = test system: Hepatitis C virus; assay: Ratio of EC50 for Hepatitis C virus genotype 1b harboring NS5A Y93H mutant gene to EC50 for Hepatitis C virus genotype 1b harboring wild type NS5A; assay type: functional, Hepacivirus hominis
[18] = Metabolic stability in human liver microsomes assessed as intact compound level at 5 uM after 1 hr; assay type: ADME; conditions: read-out: Stability

SMILES | EC50 [4] | CC50 [8] | EC50 [9] | Ratio EC50 [10] | also measured
COC(=O)N[C@H](C(=O)N1C[C@@H](C)C[C@H]1c1nc2cc(/C=C/c3ccc(-c4cc5[nH]c([C@@H]6C[C@H](C)CN6C(=O)[C@@H](NC(=O)OC)C(C)C)nc5s4)cc3)ccc2[nH]1)C(C)C | 0.038 nM | > 20000 nM | 0.004 nM |  | Vd [1]: 2.7 L/kg; clearance [2]: 6 mL/min/kg; bioavailability [3]: 14.1%; AUC(0-t) at 8 h [5]: 820 ng·h/mL; half-life [6]: 5 h; half-life [7]: 6.6 h
COC(=O)N[C@H](C(=O)N1C[C@@H](C)C[C@H]1c1ncc(-c2cc3sc(-c4ccc(-c5cc6[nH]c([C@@H]7C[C@H](C)CN7C(=O)[C@@H](NC(=O)OC)C(C)C)nc6s5)cc4)cc3s2)[nH]1)C(C)C | 0.054 nM | > 20000 nM | 0.014 nM | 3.8 | Vd [1]: 2 L/kg; clearance [2]: 5.1 mL/min/kg; bioavailability [3]: 6.7%; AUC(0-t) at 8 h [5]: 460 ng·h/mL; half-life [6]: 10.8 h; half-life [7]: 5.1 h
COC(=O)N[C@H](C(=O)N1C[C@@H](C)C[C@H]1c1ncc(-c2csc3ccc(-c4ccc(-c5cc6[nH]c([C@@H]7C[C@H](C)CN7C(=O)[C@@H](NC(=O)OC)C(C)C)nc6s5)cc4)cc23)[nH]1)C(C)C | > 100 nM | 16400 nM | 6.8 nM |  | 
COC(=O)N[C@H](C(=O)N1C[C@@H](C)C[C@H]1c1ncc(-c2ccc(-c3ccc(-c4cc5[nH]c([C@@H]6C[C@H](C)CN6C(=O)[C@@H](NC(=O)OC)C(C)C)nc5s4)cc3)s2)[nH]1)C(C)C | 0.034 nM | 18300 nM | 0.007 nM | 5 | 
COC(=O)N[C@H](C(=O)N1C[C@@H](C)C[C@H]1c1ncc(C#Cc2ccc(-c3ccc(-c4cc5[nH]c([C@@H]6C[C@H](C)CN6C(=O)[C@@H](NC(=O)OC)C(C)C)nc5s4)cc3)cc2)[nH]1)C(C)C | 1.12 nM | > 20000 nM | 0.01 nM | 112 | 
COC(=O)N[C@H](C(=O)N1C[C@@H](C)C[C@H]1c1ncc(C#Cc2ccc(-c3cc4[nH]c([C@@H]5C[C@H](C)CN5C(=O)[C@@H](NC(=O)OC)C(C)C)nc4s3)cc2)[nH]1)C(C)C | 12 nM | > 20000 nM | 0.24 nM | 50 | 
COC(=O)N[C@H](C(=O)N1C[C@@H](C)C[C@H]1c1ncc(-c2ccc(-c3ccc(-c4cc5[nH]c([C@@H]6C[C@H](C)CN6C(=O)[C@@H](NC(=O)OC)C(C)C)nc5s4)cc3)c(F)c2)[nH]1)C(C)C | 0.235 nM | 3100 nM | 0.013 nM | 18 | 
COC(=O)N[C@H](C(=O)N1C[C@@H](C)C[C@H]1c1ncc(-c2ccc(-c3ccc(-c4cc5[nH]c([C@@H]6C[C@H](C)CN6C(=O)[C@@H](NC(=O)OC)C(C)C)nc5s4)cc3)cc2F)[nH]1)C(C)C | 0.071 nM | > 20000 nM | 0.003 nM |  | 
COC(=O)N[C@H](C(=O)N1C[C@@H](C)C[C@H]1c1ncc(-c2ccc(-c3ccc(-c4cc5[nH]c([C@@H]6C[C@H](C)CN6C(=O)[C@@H](NC(=O)OC)C(C)C)nc5s4)cc3)c(C)c2)[nH]1)C(C)C | 0.062 nM | > 20000 nM | 0.002 nM | 31 | 
COC(=O)N[C@H](C(=O)N1C[C@@H](C)C[C@H]1c1ncc(-c2ccc(-c3ccc(-c4cc5[nH]c([C@@H]6C[C@H](C)CN6C(=O)[C@@H](NC(=O)OC)C(C)C)nc5s4)cc3)cc2C)[nH]1)C(C)C | 0.114 nM | > 20000 nM | 0.005 nM | 23 | 
COC(=O)N[C@H](C(=O)N1C[C@@H](C)C[C@H]1c1ncc(-c2ccc(-c3ccc(-c4cc5[nH]c([C@@H]6C[C@H](C)CN6C(=O)[C@@H](NC(=O)OC)C(C)C)nc5s4)cc3)cc2)[nH]1)C(C)C | 0.017 nM | > 20000 nM | 0.008 nM | 2 | Ratio EC50 [11]: >15000; Vd [1]: 2.4 L/kg; Ratio EC50 [12]: >500; clearance [2]: 5.3 mL/min/kg; bioavailability [3]: 25.6%; Ratio EC50 [13]: >500; AUC(0-t) at 8 h [5]: 1540 ng·h/mL; half-life [6]: 8.3 h; remaining at 1 h, 5 µM [14]: 91%; half-life [7]: 6.1 h; efflux ratio [15]: 2; Ratio EC50 [16]: >15000; Ratio EC50 [17]: 900; remaining at 1 h, 5 µM [18]: 100%
COC(=O)N[C@H](C(=O)N1C[C@@H](C)C[C@H]1c1ncc(-c2cccc(-c3ccc(-c4cc5[nH]c([C@@H]6C[C@H](C)CN6C(=O)[C@@H](NC(=O)OC)C(C)C)nc5s4)cc3)c2)[nH]1)C(C)C | 7.5 nM | > 20000 nM | 0.007 nM | 1071 | Vd [1]: 4.8 L/kg; clearance [2]: 13.5 mL/min/kg; bioavailability [3]: 16%; AUC(0-t) at 8 h [5]: 490 ng·h/mL; half-life [6]: 5.1 h; half-life [7]: 5.1 h
COC(=O)N[C@H](C(=O)N1C[C@@H](C)C[C@H]1c1nc2cc(-c3ccc(-c4cc5[nH]c([C@@H]6C[C@H](C)CN6C(=O)[C@@H](NC(=O)OC)C(C)C)nc5s4)cc3)ccc2[nH]1)C(C)C | 0.619 nM | > 20000 nM | 0.005 nM |  | 
COC(=O)N[C@H](C(=O)N1C[C@@H](C)C[C@H]1c1nc2cc(-c3ccc(-c4ccc(-c5cc6[nH]c([C@@H]7C[C@H](C)CN7C(=O)[C@@H](NC(=O)OC)C(C)C)nc6s5)cc4)cc3)ccc2[nH]1)C(C)C | 0.622 nM | > 20000 nM | 0.024 nM |  | 
COC(=O)N[C@H](C(=O)N1C[C@@H](C)C[C@H]1c1nc2cc(C#Cc3ccc(-c4cc5[nH]c([C@@H]6C[C@H](C)CN6C(=O)[C@@H](NC(=O)OC)C(C)C)nc5s4)cc3)ccc2[nH]1)C(C)C | 0.177 nM | > 20000 nM | 0.004 nM |  | 
COC(=O)N[C@H](C(=O)N1CCC[C@H]1c1ncc(-c2ccc(-c3ccc(-c4cnc([C@@H]5CCCN5C(=O)[C@@H](NC(=O)OC)C(C)C)[nH]4)cc3)cc2)[nH]1)C(C)C [DACLATASVIR] | 0.05 nM |  |  |  | 
